Consider nine sequences from US20110186731A1, “LCMS TECHNOLOGY AND ITS USES” (priority 2008, published 2011).

Test [1] relates to PBMC. Put plainly: P.69 Pertactin specific human proliferation assay (in vitro restimulation of PBMC with synthetic peptides). The format is cell-based. The note with it: PBMC from a panel of healthy adult donors, synthetic standards. Here is the method: (§1) For P.69 Pertactin specific human proliferation assays, 10^5 PBMC were incubated in complete medium at 150 µl/well in the absence or presence of the relevant peptide(s), at 1 or 10 μM at 37° C. in a 5% CO2 atmosphere. For PorA specific human proliferation assays, 10^5 PBMC or 2×10^4 MB71.5 T cells were incubated in complete medium at 150 μl/well in the absence or presence of the relevant peptide(s), peptide pool or PorAs rP1.7-2.4, P1.5-2.10, P1.7.16, P1.19.15, or P1.22.14 at the indicated concentrations at 37° C. in a 5% CO2 atmosphere. At day 4, 100-μl volumes were removed for the cytokine determinations. Then 0.5 μCi (18.5 kBq) ^3H-thymidine (Amersham, USA) was added to the culture 18 hours before harvesting the cells. Determination of CPM and calculation of the results were performed as for the proliferation assay of immune splenocytes. Results are expressed as SI±SD from at least triplicate wells. The region 4 specific T cell line MB71.5 was generated by repetitive in vitro restimulation of MB71 PBMC with 0.5 μg/ml rP1.5-2.1 in complete medium.
We investigated the immunogenicity of the two Bordetella pertussis P.69 Pertactin epitope regions in humans by in vitro restimulation of PBMC from a panel of healthy adult donors with synthetic standards representing the epitopes.

Test [2] addresses T1, HLA-A2 (Homo sapiens, UniProt P04439, D140Y/D185E/D98H/E176V/E277Q/G131W/G231S/I119V/I121R/I166T/I218V/L300P/L318F/N151K/N90K/P208A/P217A/Q86G/Q94H/R138H/R169H/T345S). The format is cell-based. The conditions noted are these: MV-infected WH cells, HLA-A2 ligands, standard LCMS.
Test [3] concerns MB71.5 T cells. Put plainly: PorA specific human proliferation assay with MB71.5 T cells. The note with it: FIG. 17A; region 4 18-mer peptides. The format is cell-based. Here is the method: as §1
For test [4], the system named is Balb/c and C57black/6 mice. Put plainly: Murine immunization with PorA and splenocyte proliferation assay. It is filed as in vivo, mouse. The conditions noted are these: splenocytes from Balb/c mice immunized with P1.5-1, 2-2; data not shown.
The target of test [5] is T1, HLA-A2. The format is cell-based. The note with it: human MDDC, HLA-A2 ligandome; from intensity ratio of native and singly labelled epitope.
[6] abbreviates: approach A (subtractive analysis).

“Also recorded” adds a separate entry of the source. Where two headings read alike, the source gives them in different places. A value given as a limit tells only on which side of the number the result lay.

For ASTLWYAESNALSKRLG, the “immune recognition observed in donors” value in test [1] is “at least 2 donors”.
On to GLASFILTI [SEQ ID NO: 6], for which the “Abundance (copies/cell)” value in test [2] (approach B (isotope labelling)) was found to be 150 copies/cell.
For KLWESPQEI [SEQ ID NO: 1], the “Abundance (copies/cell)” value is >100,000 copies/cell in test [2] (setting [6]) and > 100,000 copies/cell in test [2] (approach A (subtractive analysis), listed as MV-C84-92).
With KLWESPQEI [SEQ ID NO: 4], the “Abundance (copies/cell)” value in test [2] (approach B (isotope labelling)) was 85 copies/cell.
Turning to LMIDRPYVL [SEQ ID NO: 3], the “Abundance (copies/cell)” value in test [2] (setting [6]) stood at 150 copies/cell.
As for “PEFSGFSGSVQFVPAQNS [S011-24, synthetic 18-mer, P1.5-2.10 region 4 variant]”, in test [3], the “Proliferation of MB71.5 T cells with autologous PBMC pulsed with synthetic peptides” value was “proliferated; also recorded: recognizing”. In test [4], the “Response of splenocytes to region 4 peptides” value is on record as “responded”.
Take “QLPEATFMV (listed as Measles virus) [SEQ ID NO: 2]”: the “Abundance (copies/cell)” value in test [2] (setting [6]) is given as 1,500 copies/cell.
For the sequence “SGSVQFVPAQNSKSAYTP [S011-25, synthetic 18-mer, P1.5-2.10 region 4 variant]”, the “Proliferation of MB71.5 T cells with autologous PBMC pulsed with synthetic peptides” value in test [3] was “proliferated; also recorded: recognizing”. Further, in test [4], the “Response of splenocytes to region 4 peptides” value is listed as “responded”.
For “VVSEVDIAKAD (listed as Homo sapiens) [SEQ ID NO: 52]”, the “degree of upregulation due to the influenza virus infection” value in test [5] is given as 16.
